In patent US7105577B2, “Antimicrobial method using a hydroxydiphenyl ether compound” (Ciba Specialty Chemicals Corporation, priority 1999, dated 2006):
In brackets after ≈: the same amount, converted by molar mass. Read-outs that look alike come from different tables or passages of the source. One block for each compound: values may come before it.

Key:
Format in all cases: cell-based
[1] = system: Staphylococcus hominis DSM 20328; experiment: Agar incorporation test, MIC; details: for MIC: DSM20328, Table 1, Staphylococcus hominis DSM 20328, agar incorporation, read-out: Minimum Inhibitory Concentration, SH
[2] = system: Staphylococcus aureus ATCC 6538; experiment: Agar incorporation test, MIC; details: for MIC: ATCC6538
Source text: (§1) Medium: • Nutrient agar as test agar for bacteria: • Mueller hinton agar to cultivate the aerobic bacteria • Mueller hinton bouillon for obtaining the suspension of microorganisms • Ethanol as solvent • Wilkins-Chalgren agar to cultivate the […] bacteria • Sabouraud glucose agar to cultivate the dermatophytes
(§2) Examples of Test bacteria • Staphylococcus aureusATCC 6538 • Staphylococcus hominis DSM 20330 • Escherichia coli NCTC 8196 • Pseudomonas aeruginosa CIP A-22 • Candida albicans ATCC 10231 • Aspergillus niger ATCC 6275
(§3) Procedure: The test substances are dissolved in ethanol, and a dilution series of the compound of the formula (102) in agar are prepared. • Anaerobic bacteria and dermatophytes are activated on agar-plates, and washes off with Mueller-Hinton bouillon. Aerobic bacteria are activated in Mueller-Hinton bouillon overnight. The test germ suspension are diluted with Mueller-Hinton bouillon to a density of McFarland standard 0.5. • 10 μl of each germ suspension is dropped onto the agar plates containing the test substance, and the plates are then incubated at 37° C. for 2 days. (Aerobic bacteria are incubated at 36° C. for 72 hours, anaerobic bacteria are incubated at 30° C. for 72 hours). As controls, the bacterial suspensions are applied to agar plates without test substances.

[3] = system: Candida albicans ATCC 10231; experiment: Agar incorporation test, MIC; details: for MIC: ATCC10231
Source text: as §1, §2, §3

[4] = system: Escherichia coli NCTC 8196; experiment: Agar incorporation test, MIC; details: for MIC: NCTC8196
Source text: as §1, §2, §3

[5] = system: Pseudomonas aeruginosa CIP A-22; experiment: Agar incorporation test, MIC; details: for MIC: CIPA22
Source text: as §1, §2, §3

[6] = system: Aspergillus niger ATCC 6275; experiment: Agar incorporation test, MIC; details: Table 4
Source text: as §1, §2, §3

[7] = system: Actinomyces viscosum DSM 43329; experiment: Microbiological data (MIC); details: Table 4
Description: as §1, §3
(§4) Microbiological data of the above compounds (MIC in ppm): […]

[8] = system: Corynebacterium minutissimum ATCC 23348; experiment: Microbiological data (MIC); details: Table 4
Description: as §1, §3, §4

[9] = system: Corynebacterium xerosis ATCC 373/ATCC 7711; experiment: Microbiological data (MIC); details: Table 4
Description: as §1, §3, §4

[10] = system: Epidermophyton floccosum CBS 55384; experiment: Microbiological data (MIC); details: Table 4
Description: as §1, §3, §4

[11] = system: Porphyromonas gingivalis DSM 20709; experiment: Microbiological data (MIC); details: Table 4
Description: as §1, §3, §4

[12] = system: Propionibacterium acnes ATCC 11829; experiment: Microbiological data (MIC); details: Table 4
Description: as §1, §3, §4

[13] = system: Proteus vulgaris ATCC 6896; experiment: Microbiological data (MIC); details: Table 4
Description: as §1, §3, §4

[14] = system: Selenomonas artemidis ATCC 43528; experiment: Microbiological data (MIC); details: Table 4
Description: as §1, §3, §4

[15] = system: Staphylococcus epidermidis ATCC 12228; experiment: Microbiological data (MIC); details: Table 4
Description: as §1, §3, §4

[16] = system: Streptococcus sobrinus DSM 20742; experiment: Microbiological data (MIC); details: Table 4
Description: as §1, §3, §4

[17] = system: Trichophyton mentagrophytes ATCC 9553; experiment: Microbiological data (MIC); details: Table 4
Description: as §1, §3, §4

[18] = system: Trichophyton rubrum DSM 4167; experiment: Microbiological data (MIC); details: Table 4
Description: as §1, §3, §4

[19] = system: Malassezia furfur DSM 6171; experiment: Microbiological data (MIC); details: DSM6171, Table 4
Description: as §1, §3, §4

[20] = Table 1, Staphylococcus aureus ATCC 6538, agar incorporation, read-out: Minimum Inhibitory Concentration, SA
[21] = Table 1, Candida albicans ATCC 10231, agar incorporation, read-out: Minimum Inhibitory Concentration, CA
[22] = Table 1, Escherichia coli NCTC 8196, agar incorporation, read-out: Minimum Inhibitory Concentration, EC
[23] = Table 1, Pseudomonas aeruginosa CIP A-22, agar incorporation, read-out: Minimum Inhibitory Concentration, PA

MIC [1]: 4 µg/mL (≈ 15.6 µM)
SMILES: CC(C)CCc1ccc(Oc2ccc(O)cc2)cc1 [(120)]

MIC [1]: 8 µg/mL (≈ 27.6 µM)
SMILES: Oc1ccc(Oc2ccc(CCc3ccccc3)cc2)cc1 [(123)]

MIC [1]: 8 µg/mL (≈ 31.2 µM) | MIC [3, 21]: 60 µg/mL (≈ 234 µM)
SMILES: CCc1ccc(Oc2ccc(O)cc2)c(C(C)C)c1 [(124)]

MIC [1]: 30 µg/mL (≈ 131 µM) | MIC [3, 21]: 30 µg/mL (≈ 131 µM) | MIC [4, 22]: 120 µg/mL (≈ 526 µM)
SMILES: CCCc1ccc(Oc2ccc(O)cc2)cc1 [(125)]

MIC [1]: 120 µg/mL (≈ 560 µM) | MIC [3, 21]: 120 µg/mL (≈ 560 µM) | MIC [4, 22]: 120 µg/mL (≈ 560 µM)
SMILES: CCc1ccc(Oc2ccc(O)cc2)cc1 [(126)]

MIC [3, 21]: 50 µg/mL (≈ 269 µM) | MIC [4, 22]: 100 µg/mL (≈ 537 µM) | MIC [5, 23]: 50 µg/mL (≈ 269 µM) | MIC [2, 20]: 500 µg/mL (≈ 2690 µM)
SMILES: Oc1ccc(Oc2ccccc2)cc1 [(127)]

MIC [3, 21]: 50 µg/mL (≈ 197 µM) | MIC [4, 22]: 50 µg/mL (≈ 197 µM) | MIC [5, 23]: 50 µg/mL (≈ 197 µM) | MIC [2, 20]: 50 µg/mL (≈ 197 µM)
SMILES: Oc1ccc(Oc2ccc(C(F)(F)F)cc2)cc1 [(128)]

Continued, compound first:

SMILES: Cc1ccc(C2CCCCC2)c(Oc2ccc(O)cc2)c1 [(119)]
MIC [1]: 3 µg/mL (≈ 10.6 µM) | MIC [2, 20]: 3 µg/mL (≈ 10.6 µM)

SMILES: Cc1ccc(C(C)(C)C)c(Oc2ccc(O)cc2)c1 [(121)]
MIC [1]: 5 µg/mL (≈ 19.5 µM) | MIC [3, 21]: 13 µg/mL (≈ 50.7 µM) | MIC [2, 20]: 7 µg/mL (≈ 27.3 µM)

SMILES: Cc1ccc(C(C)C)cc1Oc1ccc(O)cc1 [(122)]
MIC [1]: 6 µg/mL (≈ 24.8 µM) | MIC [3, 21]: 13 µg/mL (≈ 53.6 µM) | MIC [2, 20]: 6 µg/mL (≈ 24.8 µM)

SMILES: Cc1ccc(C)c(Oc2ccc(O)cc2)c1 [(129)]
MIC [3, 21]: 25 µg/mL (≈ 117 µM) | MIC [5, 23]: 25 µg/mL (≈ 117 µM) | MIC [2, 20]: 50 µg/mL (≈ 233 µM)

SMILES: CCCc1ccc(Oc2ccc(O)cc2)c(C(C)C)c1 [(130)]
MIC [3, 21]: 20 µg/mL (≈ 74 µM) | MIC [5, 23]: 20 µg/mL (≈ 74 µM) | MIC [2, 20]: 50 µg/mL (≈ 185 µM)

SMILES: Cc1ccc(C(C)C)cc1Oc1ccc(O)cc1 [R1 = Me R2 = i-Propyl]
MIC, Staphylococcus hominis DSM 20328 ([1]; Table 4): 6.25 ppm | MIC, Aspergillus niger ATCC 6275 [6]: 50 ppm | MIC, Candida albicans ATCC 10231 ([3]; Table 4): 12.5 ppm | MIC, Escherichia coli NCTC 8196 ([4]; Table 4): >200 ppm | MIC, Pseudomonas aeruginosa CIP A-22 ([5]; Table 4): >200 ppm | MIC, Staphylococcus aureus ATCC 6538 ([2]; Table 4): 6.25 ppm | MIC, Actinomyces viscosum DSM 43329 [7]: 80 ppm | MIC, Corynebacterium minutissimum ATCC 23348 [8]: 6.25 ppm | MIC, Corynebacterium xerosis ATCC 373/ATCC 7711 [9]: 3.125 ppm | MIC, Epidermophyton floccosum CBS 55384 [10]: <3.125 ppm | MIC, Porphyromonas gingivalis DSM 20709 [11]: 5 ppm | MIC, Propionibacterium acnes ATCC 11829 [12]: 10 ppm | MIC, Proteus vulgaris ATCC 6896 [13]: >200 ppm | MIC, Selenomonas artemidis ATCC 43528 [14]: 10 ppm | MIC, Staphylococcus epidermidis ATCC 12228 [15]: 6.25 ppm | MIC, Streptococcus sobrinus DSM 20742 [16]: 5 ppm | MIC, Trichophyton mentagrophytes ATCC 9553 [17]: 6.25 ppm | MIC, Trichophyton rubrum DSM 4167 [18]: 5 ppm

SMILES: Cc1ccc(C)c(Oc2ccc(O)cc2)c1 [R1 = R2 = Me]
MIC, Candida albicans ATCC 10231 ([3]; Table 4): 25.0 ppm | MIC, Escherichia coli NCTC 8196 ([4]; Table 4): >200 ppm | MIC, Pseudomonas aeruginosa CIP A-22 ([5]; Table 4): >200 ppm | MIC, Staphylococcus aureus ATCC 6538 ([2]; Table 4): 50.0 ppm | MIC, Corynebacterium minutissimum ATCC 23348 [8]: 25.0 ppm | MIC, Corynebacterium xerosis ATCC 373/ATCC 7711 [9]: 25.0 ppm | MIC, Proteus vulgaris ATCC 6896 [13]: >200 ppm | MIC, Staphylococcus epidermidis ATCC 12228 [15]: 25.0 ppm

SMILES: Cc1ccc(C(C)(C)C)c(Oc2ccc(O)cc2)c1 [R1 = t-Butyl R2 = Me, 4-(2-t-Butyl-5-methylphenoxy)phenol]
MIC ([6]; Aspergillus niger, ATCC6275, read-out: MIC, Aspergillus niger ATCC 6275): 6.75 µg/mL (≈ 26.3 µM) | MIC ([3]; Candida albicans, Table 4, read-out: MIC, Candida albicans ATCC 10231): 12.5 µg/mL (≈ 48.8 µM) | MIC ([4]; Escherichia coli, Table 4, read-out: MIC, Escherichia coli NCTC 8196): > 100 µg/mL | MIC ([5]; Pseudomonas aeruginosa, Table 4, read-out: MIC, Pseudomonas aeruginosa CIP A-22): > 100 µg/mL | MIC ([2]; Staphylococcus aureus, Table 4, read-out: MIC, Staphylococcus aureus ATCC 6538): 6.75 µg/mL (≈ 26.3 µM) | MIC ([7]; Actinomyces, DSM43329): 5 µg/mL (≈ 19.5 µM) | MIC ([8]; Corynebacterium minutissimum, ATCC23348): 3.4 µg/mL (≈ 13.3 µM) | MIC ([9]; Corynebacterium xerosis): 3.4 µg/mL (≈ 13.3 µM) | MIC ([10]; Epidermophyton floccosum, CBS55384): 1.65 µg/mL (≈ 6.44 µM) | MIC [19]: 2.5 µg/mL (≈ 9.75 µM) | MIC ([11]; Porphyromonas gingivalis, DSM20709): 1.25 µg/mL (≈ 4.88 µM) | MIC ([12]; Cutibacterium acnes, ATCC11829): 5 µg/mL (≈ 19.5 µM) | MIC ([13]; Proteus vulgaris, ATCC6896): > 100 µg/mL | MIC ([14]; Centipeda artemidis, ATCC43528): 5 µg/mL (≈ 19.5 µM) | MIC ([15]; Staphylococcus epidermidis, ATCC12228): 3.4 µg/mL (≈ 13.3 µM) | MIC ([16]; Streptococcus sobrinus, DSM20742): 5 µg/mL (≈ 19.5 µM) | MIC ([17]; Trichophyton mentagrophytes, ATCC9553): 3.4 µg/mL (≈ 13.3 µM) | MIC ([18]; Trichophyton rubrum, DSM4167): 10 µg/mL (≈ 39 µM)
